One experiment deals with Jurkat cells. Nature of the experiment: Jurkat IL-2 assay. The settings on record: Homo sapiens, anti-CD3/CD28 stimulation overnight, IL-2 level. It is filed as cell-based. The procedure:
Jurkat cells (ATCC) were cultured in RPMI-1640 medium supplemented with 10% FBS. In a 96-well plate, −250,000 cells in 130 uL were added to each assay well. Ten microliter compound solution (5 uM to 2.3 nM, 8 points with 3-fold dilution) were added to cells in each well and incubated for 60 minutes at 37° C. Then 10 uL anti-CD3/CD28 antibody (Catalog #10991, Stemcell) were added and incubated overnight at 37° C. After the incubation, 16 uL supernatants were transferred into a new 384-well white assay plate for cytokine analysis. IL-2 was quantified using Human IL-2 kit (Catalog #62HIL02PEG, Cisbio) as described in the manufacturer manual.
(§1) X is log of compound concentration, Y is the IL-2 concentration, increasing as X increases.

Another experiment relates to PBMC. Nature of the experiment: Human PBMC IL-2 assay. It is filed as cell-based. The settings on record: anti-CD3/CD28 stimulation overnight, IL-2 level. The procedure:
PBMC (frozen) obtained from health donor were thawed in RPMI-1640 medium with 10% FBS and incubated for 4 h at 37° C. In a 96-well plate, −200,000 PBMC cells in 160 uL were added to each assay well. Ten microliter compound solution (10 uM to 0.6 nM, 8 points with 4-fold dilution) were added to cells in each well and incubated for 60 minutes at 37° C. Then 30 uL anti-CD3/CD28 antibody (Catalog #10991, Stemcell) were added to cells and incubated overnight at 37° C. After the incubation, 16 uL supernatants were transferred into a new 384-well white assay plate for cytokine analysis. IL-2 level was quantified using Human IL-2 kit (Catalog #62HIL02PEG, Cisbio) as described in the manufacturer manual.
as §1

pEC50: −log10 of the molar value.

Data on 31 molecules can be found in patent US20250223301A1, “KINASE INHIBITORS, PREPARATION METHODS AND USES THEREOF” (InventisBio Co., Ltd., priority 2022, published 2025).

Usually pEC50 stands for −log10 of the EC50, conventionally taken in molar units. Read a low pEC50 as a large EC50.

Turning to `CC[C@@H]1CN2c3c(c(=O)n(C)c4ccc(C#N)nc34)OC[C@@H]2CN1[C@H](CC)c1ccc(C(F)(F)F)c(Cl)c1` (stereo in doubt) [Compound 245], the figures for the pEC50 in the experiment on Jurkat cells and in the experiment with PBMC were 6.72 and 6.50, respectively.

For the molecule `C[C@@H]1CN2c3c(c(=O)n(C)c4ccc(C#N)nc34)OC[C@@H]2CN1[C@@H](C)c1ccc(Cl)c(Cl)c1` (stereo in doubt) [Compound 257], the pEC50 in the experiment with Jurkat cells is 6.88; with PBMC, 6.92.

`C[C@@H]1CN2c3c(c(=O)n(C)c4ccc(C#N)nc34)OC[C@@H]2CN1[C@H](C)c1ccc(Cl)c(Cl)c1` (stereo in doubt) [Compound 258]: the pEC50 was 6.12 in the experiment with Jurkat cells and 5.96 in the experiment with PBMC.

Regarding `C[C@@H]1CN2c3c(c(=O)n(C)c4ccc(C#N)nc34)OC[C@@H]2CN1[C@H](C)c1ccc(F)c(Cl)c1` (stereo in doubt) [Compound 259], the figures for the pEC50 in the experiment on Jurkat cells and with PBMC were 6.20 and 5.73, respectively.

Take `C[C@@H]1CN2c3c(c(=O)n(C)c4ccc(C#N)nc34)OC[C@@H]2CN1[C@@H](C)c1ccc(F)c(Cl)c1` (stereo in doubt) [Compound 260]: the pEC50 is 7.16 in the experiment with Jurkat cells and 7.05 in the experiment with PBMC.

On to `C[C@@H]1CN2c3c(c(=O)n(C)c4ccc(C#N)nc34)OC[C@@H]2CN1[C@H](C)c1ccc(Cl)cc1` (stereo in doubt) [Compound 270], for which the pEC50 in the experiment with Jurkat cells is 6.30; in the experiment with PBMC, 6.21.

With `C[C@@H]1CN2c3c(c(=O)n(C)c4ccc(C#N)nc34)OC[C@@H]2CN1[C@@H](C)c1ccc(Cl)cc1` (stereo in doubt) [Compound 271], the pEC50 was 7.10 with Jurkat cells and 7.24 with PBMC.

As to `C[C@@H]1CN2c3c(c(=O)n(C)c4ccc(C#N)nc34)OC[C@@H]2CN1[C@@H](C)c1ccc(Cl)cc1F` (stereo in doubt) [Compound 275], the pEC50 is 7.29 in the experiment with Jurkat cells and 7.64 in the experiment with PBMC.

In the case of `CC[C@@H](c1ccc(Cl)c(F)c1)N1C[C@H]2COc3c(c4nc(C#N)ccc4n(C)c3=O)N2C[C@H]1C` (stereo in doubt) [Compound 281], the pEC50 was 6.93 with Jurkat cells and 7.31 with PBMC.

With `CC[C@@H]1CN2c3c(c(=O)n(C)c4ccc(C#N)nc34)OC[C@@H]2CN1[C@@H](CC)c1ccc(C(F)F)cc1` (stereo in doubt) [Compound 291], the pEC50 with Jurkat cells is 8.00; in the experiment with PBMC it was 7.96.

`CC[C@@H]1CN2c3c(c(=O)n(C)c4ccc(C#N)nc34)OC[C@@H]2CN1[C@@H](CC)c1ccc(Cl)cc1F` (stereo in doubt) [Compound 295]: the pEC50 in the experiment with Jurkat cells was 8.10; in the experiment with PBMC it was 8.00.

In the case of `CC[C@@H]1CN2c3c(c(=O)n(C)c4ccc(C#N)nc34)OC[C@@H]2CN1[C@H](CC)c1ccc(Cl)c(F)c1` (stereo in doubt) [Compound 296], the pEC50 with Jurkat cells is 7.04; with PBMC, 7.17.

Turning to `CC[C@@H]1CN2c3c(c(=O)n(C)c4ccc(C#N)nc34)OC[C@@H]2CN1[C@@H](CC)c1ccc(Cl)c(F)c1` (stereo in doubt) [Compound 297], the pEC50 in the experiment on Jurkat cells was 7.47; in the experiment with PBMC, 7.92.

As to `C[C@@H]1CN2c3c(c(=O)n(C)c4ccc(C#N)nc34)OC[C@@H]2CN1[C@H](C)c1ccc(C(C)(F)F)cc1` (stereo in doubt) [Compound 303], the pEC50 was 6.82 with Jurkat cells and 6.98 with PBMC.

As to `C[C@@H]1CN2c3c(c(=O)n(C)c4ccc(C#N)nc34)OC[C@@H]2CN1[C@@H](C)c1ccc(C(C)(F)F)cc1` (stereo in doubt) [Compound 304], the pEC50 in the experiment on Jurkat cells was 7.47; in the experiment on PBMC, 7.62.

Turning to `CC[C@@H](c1ccc(C(F)(F)F)cc1F)N1C[C@H]2COc3c(c4nc(C#N)ccc4n(C)c3=O)N2C[C@H]1C` (stereo in doubt) [Compound 306], the pEC50 in the experiment on Jurkat cells was 7.44; with PBMC, 7.52.

On to `CC[C@@H](c1ccc(Cl)cc1F)N1C[C@H]2COc3c(c4nc(C#N)ccc4n(C)c3=O)N2C[C@H]1C` (stereo in doubt) [Compound 308], for which the pEC50 in the experiment with Jurkat cells is 8.05; with PBMC, 7.74.

With `CCC[C@@H](c1ccc(Cl)cc1)N1C[C@H]2COc3c(c4nc(C#N)ccc4n(C)c3=O)N2C[C@H]1CC` (stereo in doubt) [Compound 311], the pEC50 in the experiment on Jurkat cells was 7.27; in the experiment on PBMC, 9.00.

For the molecule `CCC[C@H](c1ccc(Cl)cc1)N1C[C@H]2COc3c(c4nc(C#N)ccc4n(C)c3=O)N2C[C@H]1CC` (stereo in doubt) [Compound 312], the figures for the pEC50 with Jurkat cells and in the experiment on PBMC were 6.66 and 7.31, respectively.

As to `C[C@@H]1CN2c3c(c(=O)n(C)c4ccc(C#N)nc34)OC[C@@H]2CN1[C@H](C)c1ccc(C(F)F)cc1` (stereo in doubt) [Compound 314], the negative logarithm of the EC50 (pEC50) in the experiment on Jurkat cells was 7.11; in the experiment with PBMC, 7.66.

With `CC[C@H]1CN([C@H](C)c2ccc(C(F)(F)F)cc2)[C@H](C)CN1c1nc2nncn2c2ccc(C#N)nc12` (stereo in doubt) [Compound 315], the figures for the pEC50 in the experiment with Jurkat cells and in the experiment with PBMC were 7.05 and 7.20, respectively.

In the case of `CC[C@H]1CN([C@@H](C)c2ccc(C(F)(F)F)cc2)[C@H](C)CN1c1nc2nncn2c2ccc(C#N)nc12` (stereo in doubt) [Compound 316], the pEC50 in the experiment on Jurkat cells was 6.15; in the experiment with PBMC, 6.13.

For the molecule `CC[C@H](c1ccc(Cl)c(C(F)(F)F)c1)N1C[C@H]2COc3c(c4nc(C#N)ccc4n(C)c3=O)N2C[C@H]1C` (stereo in doubt) [Compound 317], the pEC50 in the experiment with Jurkat cells was 7.68; in the experiment with PBMC it was 6.98.

As for `CC[C@@H](c1ccc(Cl)c(C(F)(F)F)c1)N1C[C@H]2COc3c(c4nc(C#N)ccc4n(C)c3=O)N2C[C@H]1C` (stereo in doubt) [Compound 318], the pEC50 in the experiment on Jurkat cells is 6.44; in the experiment with PBMC, 6.46.

On to `CC[C@@H]1CN2c3c(c(=O)n(C)c4ccc(C#N)nc34)OC[C@@H]2CN1[C@@H](CC)c1ccc(C(F)(F)F)c(F)c1` (stereo in doubt) [Compound 319], for which the pEC50 was 6.28 in the experiment on Jurkat cells and 6.55 in the experiment with PBMC.

Turning to `CC[C@@H]1CN2c3c(c(=O)n(C)c4ccc(C#N)nc34)OC[C@@H]2CN1[C@H](CC)c1ccc(C(F)(F)F)c(F)c1` (stereo in doubt) [Compound 320], the pEC50 is 7.38 in the experiment with Jurkat cells and 7.25 in the experiment with PBMC.

Consider `CC[C@H](c1ccc(Cl)c(Cl)c1)N1C[C@H]2COc3c(c4nc(C#N)ccc4n(C)c3=O)N2C[C@H]1C` (stereo in doubt) [Compound 321], for which the pEC50 with Jurkat cells is 6.65; in the experiment on PBMC, 6.27.

For the molecule `CC[C@H](c1ccc(C(F)(F)F)c(Cl)c1)N1C[C@H]2COc3c(c4nc(C#N)ccc4n(C)c3=O)N2C[C@H]1C` (stereo in doubt) [Compound 323], the negative-log EC50 (pEC50) in the experiment on Jurkat cells was 6.44; in the experiment with PBMC it was 6.32.

Take `CC[C@@H](c1ccc(C(F)(F)F)c(Cl)c1)N1C[C@H]2COc3c(c4nc(C#N)ccc4n(C)c3=O)N2C[C@H]1C` (stereo in doubt) [Compound 324]: the pEC50 was 7.02 with Jurkat cells and 7.31 with PBMC.

Take `CC[C@@H]1CN2c3c(c(=O)n(C)c4ccc(C#N)nc34)OC[C@@H]2CN1[C@@H](CC)c1ccc(Cl)c(C(F)(F)F)c1` (stereo in doubt) [Compound 327]: the pEC50 with Jurkat cells was 7.19; in the experiment with PBMC, 6.99.

For the molecule `CC[C@H](c1ccc(C(F)(F)F)c(F)c1)N1C[C@H]2COc3c(c4nc(C#N)ccc4n(C)c3=O)N2C[C@H]1C` (stereo in doubt) [Compound 328], the values for the pEC50 in the experiment with Jurkat cells and in the experiment on PBMC were 6.47 and 6.52, respectively.
